Experimental findings from US20260167619A2, “INDOLINE COMPOUNDS AND DERIVATIVES AS EGFR INHIBITORS” (BeOne Medicines I GmbH, priority 2020, published 2026) are described below.

One experiment deals with BaF3-LR_TM_CS cells (Homo sapiens, UniProt P00533, T790M/C797S/L858R, cells depend on it). The experiment can be described thus: Cell antiproliferation assay (CellTiter-Glo), BaF3-LR_TM_CS. The class given is cell-based. The settings on record: 48 h treatment, read-out: BaF3-LR_TM_CS IC50. Put shortly: (§1)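 Viability read as CellTiter-Glo luminescence after 48 h compound treatment at 0.2% DMSO final. Eight concentrations, 5-fold steps, made as 500× DMSO stocks starting at 5 mM. Percent inhibition curve-fitted (Hill slope, top, bottom) to give IC50.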
(Cellular ATP, detected with luciferase, serves as a proxy for viable cell number.)

The target of experiment [1] is T1, EGFR (aa668-1210, Invitrogen) (Homo sapiens, UniProt P00533).
T1 construct: EGFR (aa668-1210, Invitrogen); purchased Invitrogen
The experiment can be described thus: Biochemical EGFR inhibition assay (TR-FRET), wild-type EGFR. The note with it: ATP at Km, 15 min pre-incubation, 60 min reaction; read-out: WT (Km ATP) IC50. The essentials: (§2)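 Recombinant kinase domains pre-incubated with compound 15 min at room temperature in HEPES pH 7.5 buffer, then reacted 60 min with ATP at Km and biotin-poly GT substrate. Phosphotyrosine detected by TR-FRET (Eu-anti-pTyr/streptavidin-XL665, 665/620 nm ratio); IC50 from four-parameter logistic fit.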
On the technique in general: Time-resolved FRET reads energy transfer from a long-lived donor to a nearby acceptor.

For experiment [2], the target named is EGFR(Dell9_T790M_C797S) (aa 669-1210, in house) (Homo sapiens, UniProt P00533, T790M/C797S, form not given). The experiment can be described thus: Biochemical EGFR inhibition assay (TR-FRET), Del19/T790M/C797S mutant. The settings on record: ATP at Km, 15 min pre-incubation, 60 min reaction; read-out: Del_TM_CS (Km ATP) IC50. Put shortly:
as §2

A further experiment deals with BaF3-Del_TM_CS cells (Homo sapiens, UniProt P00533, T790M/C797S, cells depend on it, form not given). Kind of experiment: Cell antiproliferation assay (CellTiter-Glo), BaF3-Del_TM_CS. The class given is cell-based. The note with it: 48 h treatment, read-out: BaF3-Del_TM_CS IC50. Put shortly:
as §1

Experiment [3] addresses T2, EGFR(L858R_T790M_C797S) (aa695-end, Invitrogen) (Homo sapiens, UniProt P00533, C797S/L858R/T790M).
T2 construct: purchased Invitrogen
The experiment can be described thus: Biochemical EGFR inhibition assay (TR-FRET), L858R/T790M/C797S mutant. The settings on record: ATP at Km, 15 min pre-incubation, 60 min reaction; read-out: LR_TM_CS (Km ATP) IC50. Put shortly: as §2

The next experiment has as its target BaF3-WT cells (Homo sapiens, UniProt P00533). The experiment can be described thus: Cell antiproliferation assay (CellTiter-Glo), BaF3-WT. The note with it: 48 h treatment, read-out: BaF3-WT IC50. Type of experiment: cell-based. The essentials: as §1

The structures appear in SMILES notation.

T1 sequence (P00533 668-1210): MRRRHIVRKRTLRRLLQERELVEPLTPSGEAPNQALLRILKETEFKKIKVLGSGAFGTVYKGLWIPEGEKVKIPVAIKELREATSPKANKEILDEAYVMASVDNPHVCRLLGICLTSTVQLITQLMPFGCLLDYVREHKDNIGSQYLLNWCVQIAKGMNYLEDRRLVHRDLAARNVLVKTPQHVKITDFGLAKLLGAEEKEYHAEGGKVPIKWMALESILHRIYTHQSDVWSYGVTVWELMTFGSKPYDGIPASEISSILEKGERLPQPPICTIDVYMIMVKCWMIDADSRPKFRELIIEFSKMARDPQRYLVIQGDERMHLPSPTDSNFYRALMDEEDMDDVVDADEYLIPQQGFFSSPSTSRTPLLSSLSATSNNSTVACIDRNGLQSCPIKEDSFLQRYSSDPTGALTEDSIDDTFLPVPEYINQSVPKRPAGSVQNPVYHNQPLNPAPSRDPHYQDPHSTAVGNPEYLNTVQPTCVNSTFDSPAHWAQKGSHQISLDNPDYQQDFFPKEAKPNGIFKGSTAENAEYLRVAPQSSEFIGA
Chain of BaF3-Del_TM_CS cells (P00533 with tags, fused parts or gaps DEL746-750/T790M/C797S, form open): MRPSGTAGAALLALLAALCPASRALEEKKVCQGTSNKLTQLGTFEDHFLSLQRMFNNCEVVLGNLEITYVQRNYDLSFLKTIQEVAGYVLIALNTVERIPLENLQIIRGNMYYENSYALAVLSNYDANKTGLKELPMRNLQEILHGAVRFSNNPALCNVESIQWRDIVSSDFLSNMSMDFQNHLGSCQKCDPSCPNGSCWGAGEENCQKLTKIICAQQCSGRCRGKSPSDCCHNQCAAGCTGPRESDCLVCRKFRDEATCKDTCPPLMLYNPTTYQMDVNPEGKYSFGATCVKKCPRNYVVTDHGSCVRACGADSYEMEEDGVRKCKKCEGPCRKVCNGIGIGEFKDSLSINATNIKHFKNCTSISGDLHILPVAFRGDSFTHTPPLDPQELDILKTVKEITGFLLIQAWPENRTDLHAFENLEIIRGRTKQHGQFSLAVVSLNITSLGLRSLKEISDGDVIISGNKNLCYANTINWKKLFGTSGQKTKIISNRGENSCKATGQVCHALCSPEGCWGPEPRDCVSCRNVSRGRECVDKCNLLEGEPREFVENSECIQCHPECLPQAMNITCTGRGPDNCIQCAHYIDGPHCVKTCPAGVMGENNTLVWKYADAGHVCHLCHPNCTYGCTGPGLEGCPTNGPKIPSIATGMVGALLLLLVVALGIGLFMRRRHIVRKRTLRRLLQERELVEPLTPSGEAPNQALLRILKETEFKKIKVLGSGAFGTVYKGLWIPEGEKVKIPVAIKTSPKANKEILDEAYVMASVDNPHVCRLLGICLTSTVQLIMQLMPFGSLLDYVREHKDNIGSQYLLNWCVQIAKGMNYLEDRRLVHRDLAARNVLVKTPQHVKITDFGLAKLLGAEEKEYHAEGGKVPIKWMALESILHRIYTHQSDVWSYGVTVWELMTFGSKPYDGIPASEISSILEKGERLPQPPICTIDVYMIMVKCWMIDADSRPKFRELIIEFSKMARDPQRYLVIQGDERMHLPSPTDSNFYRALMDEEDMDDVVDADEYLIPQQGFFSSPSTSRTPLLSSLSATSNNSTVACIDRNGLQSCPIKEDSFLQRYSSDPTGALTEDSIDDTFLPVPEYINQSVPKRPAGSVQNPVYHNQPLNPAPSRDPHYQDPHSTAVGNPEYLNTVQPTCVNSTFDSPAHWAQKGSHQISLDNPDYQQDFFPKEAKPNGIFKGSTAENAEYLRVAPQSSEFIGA
Chain of EGFR(Dell9_T790M_C797S) (aa 669-1210, in house) (P00533 with tags, fused parts or gaps DEL746-750/T790M/C797S, form open): as above
Chain of BaF3-WT cells (P00533 whole entry, change not shown): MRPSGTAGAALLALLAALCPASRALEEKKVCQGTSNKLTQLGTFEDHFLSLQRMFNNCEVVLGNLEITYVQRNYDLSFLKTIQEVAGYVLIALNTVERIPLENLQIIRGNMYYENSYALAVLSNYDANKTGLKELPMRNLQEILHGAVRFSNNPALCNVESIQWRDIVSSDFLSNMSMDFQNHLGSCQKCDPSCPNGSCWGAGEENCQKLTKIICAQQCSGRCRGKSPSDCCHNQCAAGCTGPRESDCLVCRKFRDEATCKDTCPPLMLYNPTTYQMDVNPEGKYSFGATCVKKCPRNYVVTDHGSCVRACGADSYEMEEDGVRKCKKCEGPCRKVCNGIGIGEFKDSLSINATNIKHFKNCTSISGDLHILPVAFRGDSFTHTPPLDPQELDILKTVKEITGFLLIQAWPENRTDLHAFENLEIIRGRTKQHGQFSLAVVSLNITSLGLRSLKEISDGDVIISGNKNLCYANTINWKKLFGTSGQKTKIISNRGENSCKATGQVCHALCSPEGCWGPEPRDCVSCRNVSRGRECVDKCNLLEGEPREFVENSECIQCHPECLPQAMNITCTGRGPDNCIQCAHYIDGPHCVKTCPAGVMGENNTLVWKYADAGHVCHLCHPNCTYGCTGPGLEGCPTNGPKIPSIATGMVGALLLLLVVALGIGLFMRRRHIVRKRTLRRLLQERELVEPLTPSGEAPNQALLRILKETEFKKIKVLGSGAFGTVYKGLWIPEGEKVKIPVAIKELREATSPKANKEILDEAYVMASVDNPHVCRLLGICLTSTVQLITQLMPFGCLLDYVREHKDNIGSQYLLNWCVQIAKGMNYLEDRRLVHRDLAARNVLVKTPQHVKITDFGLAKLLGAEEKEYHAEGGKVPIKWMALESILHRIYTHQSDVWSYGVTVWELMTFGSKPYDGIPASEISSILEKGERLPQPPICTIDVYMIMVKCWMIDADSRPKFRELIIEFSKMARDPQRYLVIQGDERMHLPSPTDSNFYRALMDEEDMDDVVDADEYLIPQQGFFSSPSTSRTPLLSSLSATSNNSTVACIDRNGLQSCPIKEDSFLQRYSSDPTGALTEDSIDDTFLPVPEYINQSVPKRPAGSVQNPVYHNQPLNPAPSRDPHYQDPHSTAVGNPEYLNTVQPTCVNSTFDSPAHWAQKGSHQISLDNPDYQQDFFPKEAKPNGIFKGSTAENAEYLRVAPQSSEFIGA
T2 sequence (P00533 695-1210 T790M/C797S/L858R): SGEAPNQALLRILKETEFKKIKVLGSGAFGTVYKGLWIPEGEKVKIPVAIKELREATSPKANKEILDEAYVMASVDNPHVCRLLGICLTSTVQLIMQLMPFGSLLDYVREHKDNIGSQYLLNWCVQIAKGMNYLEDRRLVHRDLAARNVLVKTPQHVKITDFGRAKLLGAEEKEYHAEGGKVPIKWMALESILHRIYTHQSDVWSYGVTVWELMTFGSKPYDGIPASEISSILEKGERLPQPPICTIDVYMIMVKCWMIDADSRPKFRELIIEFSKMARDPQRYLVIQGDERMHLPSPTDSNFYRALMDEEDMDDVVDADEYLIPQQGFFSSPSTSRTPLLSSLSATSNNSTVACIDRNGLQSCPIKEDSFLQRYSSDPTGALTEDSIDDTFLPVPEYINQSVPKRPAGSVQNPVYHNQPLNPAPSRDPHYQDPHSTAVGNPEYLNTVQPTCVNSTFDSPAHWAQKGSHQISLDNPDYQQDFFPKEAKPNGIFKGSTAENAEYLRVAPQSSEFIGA

For `CN(C)C1CCN(c2ccc(Nc3ncc(Br)c(Nc4cccc5c4N(S(C)(=O)=O)CC5)n3)c3c2CCO3)CC1` [Example 48, 5-bromo-N^2-(4-(4-(dimethylamino)piperidin-1-yl)-2,3-dihydrobenzofuran-7-yl)-N^4-(1-(methylsulfonyl)indolin-7-yl)pyrimidine-2,4-diamine], the GI50 at BaF3-LR_TM_CS cells is 30.5 nM; on BaF3-Del_TM_CS cells it was 3.56 nM; on BaF3-WT cells, 361 nM. In addition, the concentration for half-maximal inhibition (IC50) (usually the concentration that inhibits the measured activity by half) in experiment [1] was determined as 4.4 nM; in experiment [2], 0.18 nM; in experiment [3], 0.3 nM.

Take `CN1CCN(c2ccc(Nc3nc(Nc4cccc5c4N(S(C)(=O)=O)CC5)c4cc[nH]c4n3)cc2F)CC1` [Example 84, N^2-(3-fluoro-4-(4-methylpiperazin-1-yl)phenyl)-N^4-(1-(methylsulfonyl)indolin-7-yl)-7H-pyrrolo[2,3-d]pyrimidine-2,4-diamine]: the GI50 on BaF3-LR_TM_CS cells was 78 nM; on BaF3-Del_TM_CS cells it was 10.7 nM; at BaF3-WT cells it was 335 nM. Besides, the figures for the IC50 in experiment [1], in experiment [2] and in experiment [3] were 150 nM, 1.6 nM and 1.5 nM, respectively.

`COc1cc(N2CCC(N3CCN(C)CC3)CC2)ccc1Nc1ncc(F)c(Nc2cccc3c2N(S(C)(=O)=O)CC3)n1` [Example 32, 5-fluoro-N^2-(2-methoxy-4-(4-(4-methylpiperazin-1-yl)piperidin-1-yl)phenyl)-N^4-(1-(methylsulfonyl)indolin-7-yl)pyrimidine-2,4-diamine]: the results for the GI50 at BaF3-LR_TM_CS cells, at BaF3-Del_TM_CS cells and on BaF3-WT cells were 246 nM, 62.8 nM and 570 nM, respectively. Further, the IC50 in experiment [1] worked out at 0.88 nM; in experiment [2], 0.54 nM; in experiment [3], 1.9 nM.

As for `COc1cc(N2CCC(N3CCN(C)CC3)CC2)ccc1Nc1ncc(Cl)c(Nc2cccc3c2N(S(=O)(=O)CCc2ccccc2)CC3)n1` [Example 8, 5-chloro-N^2-(2-methoxy-4-(4-(4-methylpiperazin-1-yl)piperidin-1-yl)phenyl)-N^4-(1-(phenethylsulfonyl)indolin-7-yl)pyrimidine-2,4-diamine], the GI50 on BaF3-LR_TM_CS cells was 730 nM; on BaF3-Del_TM_CS cells it was 630 nM; at BaF3-WT cells, 1860 nM. Also, the figures for the IC50 in experiment [1], in experiment [2] and in experiment [3] were 14 nM, 121 nM and 21 nM, respectively.

Regarding `COc1cc(N2CCC(N3CCN(C)CC3)CC2)ccc1Nc1ncc(Cl)c(Nc2cccc3c2N(S(=O)(=O)C2CC2)CC3)n1` [Example 7, 5-chloro-N^4-(1-(cyclopropylsulfonyl)indolin-7-yl)-N^2-(2-methoxy-4-(4-(4-methylpiperazin-1-yl)piperidin-1-yl)phenyl)pyrimidine-2,4-diamine], the GI50 at BaF3-LR_TM_CS cells was 81.6 nM; on BaF3-Del_TM_CS cells, 53.9 nM; on BaF3-WT cells it was 457 nM. Also, the results for the IC50 in experiment [1], in experiment [2] and in experiment [3] were 1.8 nM, 0.57 nM and 0.61 nM, respectively.

As to `CCc1cc(Nc2ncc(Cl)c(Nc3cccc4c3N(S(C)(=O)=O)CC4)n2)c(OC)cc1N1CCC(N2CCN(C)CC2)CC1` [Example 41, 5-chloro-N^2-(5-ethyl-2-methoxy-4-(4-(4-methylpiperazin-1-yl)piperidin-1-yl)phenyl)-N^4-(1-(methylsulfonyl)indolin-7yl)pyrimidine-2,4-diamine], the GI50 at BaF3-LR_TM_CS cells stood at 15.4 nM; on BaF3-Del_TM_CS cells, 6.06 nM; at BaF3-WT cells it was 610 nM. Moreover, the figures for the IC50 in experiment [1], in experiment [2] and in experiment [3] were 0.81 nM, 0.51 nM and 0.67 nM, respectively.

Take `COc1cc(N2CCC(N3CCN(C)CC3)CC2)ccc1Nc1ncc(Cl)c(Nc2cc(C)cc3c2N(S(C)(=O)=O)CC3)n1` [Example 5, 5-chloro-N^2-(2-methoxy-4-(4-(4-methylpiperazin-1-yl)piperidin-1-yl)phenyl)-N^4-(5-methyl-1-(methylsulfonyl)indolin-7-yl)pyrimidine-2,4-diamine]: the values for the GI50 on BaF3-LR_TM_CS cells, at BaF3-Del_TM_CS cells and on BaF3-WT cells were 1290 nM, 971 nM and 2320 nM, respectively. Besides, the IC50 stood at 311 nM in experiment [1], 159 nM in experiment [2] and 162 nM in experiment [3].

Regarding `CN(C)C1CCN(c2ccc(Nc3ncc(Cl)c(Nc4cccc5c4N(S(C)(=O)=O)CC5)n3)c3c2OCO3)CC1` [Example 51, 5-chloro-N2-(7-(4-(dimethylamino)piperidin-1-yl)benzo[d][1,3]dioxol-4-yl)-N4-(1-(methylsulfonyl)indolin-7-yl)pyrimidine-2,4-diamine], the GI50 on BaF3-LR_TM_CS cells is 35.9 nM; at BaF3-Del_TM_CS cells it was 10.1 nM; on BaF3-WT cells it was 235 nM. Besides, the IC50 was determined as 4.2 nM in experiment [1], 0.19 nM in experiment [2] and 0.8 nM in experiment [3].

Turning to `COc1cc(N2CCC(N3CCN(C)CC3)CC2)ccc1Nc1ncc(Cl)c(Nc2cccc3c2N(S(=O)(=O)C(C)(C)C)CC3)n1` [Example 9, N^4-(1-(tert-butylsulfonyl)indolin-7-yl)-5-chloro-N^2-(2-methoxy-4-(4-(4-methylpiperazin-1-yl)piperidin-1-yl)phenyl)pyrimidine-2,4-diamine], the GI50 was 428 nM at BaF3-LR_TM_CS cells, 455 nM on BaF3-Del_TM_CS cells and 1640 nM at BaF3-WT cells. The IC50 came to 187 nM in experiment [1], 186 nM in experiment [2] and 13 nM in experiment [3].

As to `COc1cc(N2CC3(CN(C)C3)C2)c(F)cc1Nc1nc(Nc2cccc3c2N(S(C)(=O)=O)CC3)c2cc[nH]c2n1` [Example 97, N^2-(5-fluoro-2-methoxy-4-(6-methyl-2,6-diazaspiro[3.3]heptan-2-yl)phenyl)-N^4-(1-(methylsulfonyl)indolin-7-yl)-7H-pyrrolo[2,3-d]pyrimidine-2,4-diamine], the GI50 on BaF3-LR_TM_CS cells was 240 nM; on BaF3-Del_TM_CS cells, 104 nM; at BaF3-WT cells, 1930 nM. For the same compound, the half-inhibitory concentration (IC50) is 206 nM in experiment [1], 4.3 nM in experiment [2] and 2.4 nM in experiment [3].

Take `COc1cc(N2CCC(N3CCN(C)CC3)CC2)c(C)cc1Nc1ncc(Br)c(Nc2cccc3c2N(S(C)(=O)=O)CC3)n1` [Example 40, 5-bromo-N^2-(2-methoxy-5-methyl-4-(4-(4-methylpiperazin-1-yl)piperidin-1-yl)phenyl)-N^4-(1-(methylsulfonyl)indolin-7-yl)pyrimidine-2,4-diamine]: the GI50 on BaF3-LR_TM_CS cells stood at 4.91 nM; on BaF3-Del_TM_CS cells, 1.56 nM; on BaF3-WT cells it was 230 nM. Also, the half-maximal inhibitory concentration (IC50) in experiment [1] turned out to be 0.78 nM; in experiment [2], 0.36 nM; in experiment [3], 0.21 nM.

In the case of `COc1cc(N2CCC(N3CCN(C)CC3)CC2)ccc1Nc1nc2c(c(Nc3cccc4c3N(S(C)(=O)=O)CC4)n1)CCC2` [Example 74, N^2-(2-methoxy-4-(4-(4-methylpiperazin-1-yl)piperidin-1-yl)phenyl)-N^4-(1-(methylsulfonyl)indolin-7-yl)-6,7-dihydro-5H-cyclopenta[d]pyrimidine-2,4-diamine], the results for the GI50 at BaF3-LR_TM_CS cells, on BaF3-Del_TM_CS cells and on BaF3-WT cells were 617 nM, 436 nM and 2350 nM, respectively. Moreover, the IC50 was determined as 525 nM in experiment [1], 131 nM in experiment [2] and 53 nM in experiment [3].

For `COc1cc(N2CCC(N3CCN(C)CC3)CC2)ccc1Nc1nc(Nc2cccc3c2N(S(C)(=O)=O)CC3)c2c(Cl)c[nH]c2n1` [Example 73, 5-chloro-N^2-(2-methoxy-4-(4-(4-methylpiperazin-1-yl)piperidin-1-yl)phenyl)-N^4-(1-(methylsulfonyl)indolin-7-yl)-7H-pyrrolo[2,3-d]pyrimidine-2,4-diamine], the GI50 on BaF3-LR_TM_CS cells worked out at 141 nM; at BaF3-Del_TM_CS cells, 27.4 nM; at BaF3-WT cells, 853 nM. Moreover, the half-inhibitory concentration (IC50) is 4.7 nM in experiment [1], 1.6 nM in experiment [2] and 0.61 nM in experiment [3].

For the compound `COc1cc(N2CCC(N3CCN(C)CC3)CC2)ccc1Nc1ncc(Cl)c(Nc2ccc(Br)c3c2N(S(C)(=O)=O)CC3)n1` [Example 2, N^4-(4-bromo-1-(methylsulfonyl)indolin-7-yl)-5-chloro-N^2-(2-methoxy-4-(4-(4-methylpiperazin-1-yl)piperidin-1-yl)phenyl)pyrimidine-2,4-diamine], the GI50 amounted to 66.1 nM at BaF3-LR_TM_CS cells, 14.6 nM at BaF3-Del_TM_CS cells and 511 nM on BaF3-WT cells. The IC50 in experiment [1] is 0.64 nM; in experiment [2], 0.36 nM; in experiment [3] it was 0.48 nM.

Turning to `COc1cc(N2CCC(N3CCN(C)CC3)CC2)ccc1Nc1ncc(Cl)c(Nc2cccc3c2N(S(C)(=O)=O)CC3)n1` [Example 30, 5-chloro-N^2-(2-methoxy-4-(4-(4-methylpiperazin-1-yl)piperidin-1-yl)phenyl)-N^4-(1-(methylsulfonyl)indolin-7-yl)pyrimidine-2,4-diamine], the GI50 was found to be 37.3 nM on BaF3-LR_TM_CS cells, 7.59 nM on BaF3-Del_TM_CS cells and 411 nM on BaF3-WT cells. Moreover, the IC50 in experiment [1] stood at 0.4 nM; in experiment [2] it was 0.2 nM; in experiment [3], 0.3 nM.
